Experimental findings from PubChem BioAssay AID1996 are described below.

The structures appear in SMILES notation. In brackets after ≈: the same amount, converted by molar mass.

The conditions of the data set: buffer; pH 7.4; 200.0 µM.
What is called solubility (kinetic) is solubility judged after dilution from a stock solution rather than from solid. In the case of `O=C(CSc1nc2ccccc2c(=O)n1-c1ccccc1F)NC1CC1`, the solubility (kinetic) is above 55.4 µg/mL.

In turn, `O=C(OCC(=O)c1ccc[nH]1)c1ccc(F)c(S(=O)(=O)N2CCOCC2)c1` gave a solubility (kinetic) of 7.8 µg/mL (≈ 19.7 µM).

As for `COC(=O)/C=C1\SC(=Nc2ccc(OC)cc2)NC1=O`, the solubility (kinetic) was found to be 1.9 µg/mL (≈ 6.5 µM).

The compound `CCC1(C)Cc2nc(Cl)c(C#N)cc2CO1` (configuration not stated) showed a solubility (kinetic) of 34.2 µg/mL (≈ 144 µM).

For `C/C(CC(=O)NCCN1CCOCC1)=N\NC(=O)c1ccncc1`, the kinetic solubility was above 50 µg/mL.

Compound `CCOc1ccc(-c2nc3scc(-c4cccs4)c3c(=O)[nH]2)cc1` gave a solubility (kinetic) below 0.4 µg/mL.

Compound `Cl.Fc1cccc(C2NCc3ccccc3-n3cccc32)c1` (configuration not stated) yielded a kinetic solubility of 30.6 µg/mL.

With `CC(C)(C)NC(=S)N1CCn2cccc2C1c1cccnc1` (configuration not stated), the solubility (kinetic) was determined as 33.5 µg/mL (≈ 107 µM).

Regarding `C(#Cc1ccccc1)CN1CCOCC1.Cl`, the kinetic solubility is above 35.7 µg/mL.

`CN1C(=O)c2ccccc2N(C)C1c1cccc(O)c1` (configuration not stated) returned a kinetic solubility of 38.1 µg/mL (≈ 142 µM).

Turning to `CN(Cc1ccccc1)C(=O)COC(=O)COc1ccc(C#N)cc1`, the solubility (kinetic) was above 50.8 µg/mL.

For `S=C(NCc1ccccc1)N1CCN(c2ccccc2)CC1`, the kinetic solubility stood at 0.5 µg/mL (≈ 1.61 µM).

In the case of `Cc1ccc(OCC(=O)NC2CC(C)(C)NC(C)(C)C2)c(C)c1`, the solubility (kinetic) was above 47.8 µg/mL.

`CC1CCN(CCC(=O)Nc2ccc(F)c(F)c2)CC1` registered a kinetic solubility above 42.3 µg/mL.

`Cc1cc(NC(=O)COC(=O)/C=C/c2ccc(C)o2)no1` gave a solubility (kinetic) of 1.8 µg/mL (≈ 6.2 µM).

`Cc1ccc(C(C)C)c(OCC(=O)OCC(=O)NC2CC2)c1` displayed a solubility (kinetic) above 45.8 µg/mL.

Compound `COCCCN1CN=C(NS(=O)(=O)c2ccc(C)cc2)NC1` gave a kinetic solubility above 49 µg/mL.

Compound `CCOC(=O)c1ccc(NC(=O)Nc2ncccc2C)cc1` showed a solubility (kinetic) of 0.6 µg/mL (≈ 2 µM).

In the case of `O=C(Nc1ncccc1O)c1ccc2c(c1)OCCO2`, the kinetic solubility was above 40.8 µg/mL.

The compound `Cc1ccc(S(=O)(=O)N2CCN(C(=O)Cn3c(=O)cnc4ccccc43)CC2)c(C)c1` registered a kinetic solubility above 66.1 µg/mL.

As to `CC(NC(=O)CCCC1CCCCC1)c1ccc(S(N)(=O)=O)cc1` (configuration not stated), the kinetic solubility was above 52.9 µg/mL.

For `COc1cc2ccccc2cc1C(=O)Nc1ccc2oc(=O)ccc2c1`, the kinetic solubility was below 0.7 µg/mL.

In turn, `CCc1c(C)c2ccc(O)c(CN3CCCC3)c2oc1=O` had a solubility (kinetic) of 41.6 µg/mL (≈ 145 µM).

In turn, `O=C(CN1CCCC1)Nc1ccc(OCc2ccccc2)cc1` gave a solubility (kinetic) above 46.6 µg/mL.

In turn, `O=C(Nc1ccccc1C(=O)NCCc1ccccc1)c1cnccn1` returned a kinetic solubility of 3.2 µg/mL (≈ 9.24 µM).

Turning to `N/C(=N\OC(=O)Cc1ccccc1)c1cccc(Br)c1`, the solubility (kinetic) stood at 1.1 µg/mL (≈ 3.3 µM).

In turn, `CS(=O)(=O)N1CCN(CC(=O)NC2CCCC2)CC1` came in with a solubility (kinetic) above 43.4 µg/mL.

As for `CCCCn1c(=O)c(C(=O)Nc2ccccc2N)c(O)c2ccccc21`, the kinetic solubility is below 0.3 µg/mL.

In the case of `COCCN(C/C=C/c1ccccc1)C/C=C/c1ccccc1`, the solubility (kinetic) stood at 10.1 µg/mL (≈ 32.9 µM).

Turning to `CSc1ncccc1C(=O)OCC(=O)c1ccc[nH]1`, the solubility (kinetic) was determined as 9.7 µg/mL (≈ 35.1 µM).

`O=C(c1cc2cc(C(F)(F)F)ccc2s1)N1CCOCC1`: the solubility (kinetic) is above 47.3 µg/mL.

`CCN(CC(=O)Nc1c(F)cccc1F)C(=O)C1CC1` registered a kinetic solubility of 40.7 µg/mL (≈ 144 µM).

`O=C(Nc1ccc(F)cc1)NC1CCCc2ccccc21` (configuration not stated): the solubility (kinetic) came to 0.7 µg/mL (≈ 2.46 µM).

In turn, `O=S(=O)(CCSc1ccc(C(F)(F)F)cn1)c1ccccc1` gave a kinetic solubility of 4.7 µg/mL (≈ 13.5 µM).

As to `Cc1ccc(SCCSc2nc(C)cc(=O)[nH]2)cc1`, the kinetic solubility amounted to 2.1 µg/mL (≈ 7.18 µM).

Consider `COCCN(C)Cc1nc(C(c2ccccc2)c2ccccc2)no1`, for which the kinetic solubility amounted to 37.7 µg/mL (≈ 112 µM).

Compound `COc1cc2c(cc1OC)CN(C(=O)CCN1C(=O)C3CCCCC3C1=O)CC2` (configuration not stated) showed a kinetic solubility of 46.2 µg/mL (≈ 115 µM).

As to `CCOC(=O)c1cc(NC(=O)c2cccnc2)ccc1N1CCOCC1`, the kinetic solubility is above 53.3 µg/mL.

`CC(C(=O)O)N1C(=O)C2C3c4ccccc4C(c4ccccc43)[C@@H]2C1=O` (some centres not stated) showed a solubility (kinetic) above 52.1 µg/mL.

Take `COc1cccc(CNc2ccc(C(=O)O)cc2)c1OCc1ccccc1`: the solubility (kinetic) is above 54.5 µg/mL.

Regarding `Cc1cccnc1NC(=O)CCNC(=O)c1ccc(Br)cc1`, the solubility (kinetic) was above 54.3 µg/mL.

With `Cc1c(C)n(CCc2ccccc2)c2ncnc(NCCCO)c12`, the kinetic solubility was found to be 48.3 µg/mL (≈ 149 µM).

Compound `COc1ccc(C(=O)Cn2cnc3ccccc3c2=O)cc1OC` had a solubility (kinetic) of 42.3 µg/mL (≈ 130 µM).

Compound `COc1ccc(-c2ncncc2-c2ccc(OC)c(OC)c2)c(O)c1` registered a kinetic solubility above 50.8 µg/mL.

In turn, `O=C(Nc1ccc(Cl)cn1)c1ccc(Oc2ccccc2)cc1` showed a kinetic solubility below 0.3 µg/mL.

For the compound `O=[N+]([O-])c1ccc(N2CCCCC2)nc1`, the kinetic solubility came out at 29.2 µg/mL (≈ 141 µM).

`N#Cc1ccc(OCC(=O)OCC(=O)c2ccc[nH]2)cc1` gave a kinetic solubility above 42.6 µg/mL.

In turn, `Cc1cc(NC(=O)COC(=O)C(C)Oc2ccc(Cl)cc2Cl)no1` (configuration not stated) came in with a kinetic solubility of 42.2 µg/mL (≈ 113 µM).

Compound `CC(C)(CNS(=O)(=O)c1ccc(Br)s1)N1CCOCC1` showed a kinetic solubility above 57.5 µg/mL.

`CCOC(=O)C1=C(C)NC(C)=C(C(=O)OCC)C1c1ccco1` showed a solubility (kinetic) of 8.8 µg/mL (≈ 27.6 µM).

Regarding `Cc1cc(Cl)cc(C)c1OCCCCCn1ccnc1`, the kinetic solubility amounted to 30.7 µg/mL (≈ 105 µM).

Turning to `CCN(Cc1ccccc1)C(=O)c1[nH]c2ccc(OC)cc2c1C`, the kinetic solubility worked out at 31.2 µg/mL (≈ 96.8 µM).
